Tests used:
Assay in all cases: AUC of viability dose-response curve (% viability x log10 dose units); higher = less sensitive
Settings in all cases: 48 h
P12-Ichikawa = tested on: P12-Ichikawa
Summary of the method: (§1)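 Leukemia cells adapted to each medium were seeded at 500 or 1000 cells/well in 1536-well plates and dosed with library compounds in DMSO at 11 threefold doses from 47 μM to 0.79 nM for 48 h at 37°C. CellTiter-Glo One luminescence was normalised per plate to DMSO and cell-free wells, then fitted with a four-parameter log-logistic model over log10 doses. Area under the curve was taken from this fit by the trapezoidal rule, with curves above full viability scaled and curves failing quality control removed.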

SEM cells = tested on: SEM cells
Summary of the method: as §1

NOMO1 = tested on: NOMO1
Summary of the method: as §1

[1] = RPMI 5 mM glucose + 10% dialyzed FBS

| Compound | AUC of viability dose-response curve (P12-Ichikawa; HPLM + 10% dialyzed FBS) | AUC of viability dose-response curve (P12-Ichikawa; RPMI 5 mM glucose + 10% FBS) | AUC of viability dose-response curve (P12-Ichikawa; [1]) | AUC of viability dose-response curve (SEM cells; HPLM + 10% dialyzed FBS) | AUC of viability dose-response curve (SEM cells; RPMI 5 mM glucose + 10% FBS) | AUC of viability dose-response curve (SEM cells; [1]) | AUC of viability dose-response curve (NOMO1; HPLM + 10% dialyzed FBS) | AUC of viability dose-response curve (NOMO1; RPMI 5 mM glucose + 10% FBS) | AUC of viability dose-response curve (NOMO1; [1]) |
| --- | --- | --- | --- | --- | --- | --- | --- | --- | --- |
| CN(C)C[C@@H]1CC[N]2C=C(C3=C2C=CC=C3)C/4=C(/C(=O)NC4=O)C5=C[N](CCO1)C6=C5C=CC=C6 | 458 | 453 | 459 | 391 | 412 | 393 | 443 | 423 | 425 |
| CC(C)NCC(O)c1ccc(NS(C)(=O)=O)cc1 (stereo not given) | 464 | 472 | 457 | 466 | 447 | 468 | 460 | 447 | 461 |
| C[S+]([O-])c1ccc(-c2nc(-c3ccc(F)cc3)c(-c3ccncc3)[nH]2)cc1 (stereo not given) | 380 | 359 | 367 | 324 | 314 | 324 | 358 | 357 | 334 |
| COc1cc(OC)c(NC(=O)Nc2cc(C)on2)cc1Cl | 463 | 465 | 463 | 467 | 397 | 453 | 464 | 442 | 417 |
| Cc1cc(Cl)ccc1OCCCC(=O)NO | 400 | 380 | 336 | 411 | 418 | 403 | 438 | 428 | 444 |
| Cc1ccc(C(=O)c2cc(O)c(O)c([N+](=O)[O-])c2)cc1 | 468 | 449 | 434 | 435 | 466 | 434 | 447 | 424 | 456 |
| CN(C)CC/C=C1/c2ccccc2COc2ccc(CC(=O)O)cc21 | 462 | 467 | 461 | 448 | 454 | 449 | 466 | 437 | 453 |
| COC1=CC2=C(C=C1OC)[C@H]3[C@@H](CO2)OC4=C(C=CC5=C4\C=C/C(C)(C)O5)C3=O | 399 | 327 | 341 | 409 | 357 | 326 | 402 | 404 | 406 |
| CC[C@@]1(O)C[C@H](O[C@H]2C[C@H](N(C)C)[C@H](O[C@H]3C[C@H](O)[C@H](O[C@H]4CCC(=O)[C@H](C)O4)[C@H](C)O3)[C@H](C)O2)c2c(cc3c(c2O)C(=O)c2c(O)cccc2C3=O)[C@H]1C(=O)OC | 463 | 417 | 425 | 217 | 225 | 200 | 426 | 430 | 410 |
| C[C@@H]1CC[C@@]2(OC1)OC1CC3C4CC=C5CC(O)CCC5(C)C4CCC3(C)C1[C@@H]2C (stereo not given in full) | 419 | 453 | 444 | 444 | 394 | 415 | 428 | 402 | 407 |

Reference: the supplement of paper PMC11451515
